Experimental data published in US20220096515A1, “Methods and Formulations for Preventing Neurological or Psychiatric Disorders” (Huntington Medical Research Institutes, priority 2020, published 2022).

Assays:
[1] = system: CD1 derived endothelial cells, purified from the periventricular plexus; test: Long-distance endothelial cell migration assay; assay type: cell-based, mouse; settings: vs untreated cells
Procedure: In preparation for long-distance cell migration assays, square culture inserts (ibidi GmbH) were placed at one end of a 35 mm dish. Cultures of CD1 derived endothelial cells, purified from the periventricular plexus, were plated in the insert and allowed to migrate for 24 hours in endothelial cell culture medium. Endothelial cells were labeled with cell trace marker (CellLight Plasma Membrane-RFP, BacMam 2.0, Invitrogen) to visualize endothelial cell morphologies during subsequent imaging. The migration of endothelial cells from one end of the dish to the other spanning a distance of 3.5 cm was imaged and quantified.
In one experiment, periventricular endothelial cells were isolated from E15 wildtype (CD1) forebrain and tested the effect of NAD^+ addition in vitro. Exogenous addition of 100 μM NAD^+ was able to initiate significant endothelial cell proliferation within 2 days of culture and a 35 mm culture dish was confluent within 4-6 days (FIGS. 2A-2D). This was an interesting observation, since untreated periventricular endothelial cells take approximately 12 days to reach confluency in 35mm dishes, in our well-established culture conditions. […] Vital elements of angiogenesis include effective endothelial cell proliferation, migration, sprouting, alignment, tube formation and branching. […]

[2] = system: neuronal cells isolated from the E15 CD1 forebrain; test: Neuronal cell proliferation and long-distance migration in vitro; assay type: cell-based, mouse
Procedure: Isolation and primary culture of neuronal cells: Primary culture of embryonic GABAergic neurons from CD1 telencephalon or after the saline or NAD+ treatment paradigms were performed using established methods. Briefly, embryonic brains were extracted under a stereo microscope and placed into cold PBS. After removal of the pial membrane, the telencephalon was dissected from each embryonic brain. The telencephalon was minced into 1-2 mm slices in cold PBS. Minced telencephalon was treated with 0.1× trypsin/EDTA at 37° C. for 5 min. Trypsin treatment was stopped by adding FBS-DMEM media and DNase I consecutively. Dissociated cells were filtered with a 40 μm cell strainer and finally filtered cells were cultured in poly-D-lysine coated culture dishes with Neurobasal medium (Life technologies) with 1× B-27 (Life technologies) and 1× Glutamax (Life technologies).
Neuronal migration assay: In preparation for cell migration assays, one well square culture inserts (ibidi GmbH) were placed in the center of a poly-Ornithine/Laminin coated 35 mm dish, to make a small rectangular patch that is labeled outside the dish. Embryonic neurons prepared from the saline and NAD+ treated groups were seeded in the inserts in Neurobasal medium, supplemented with 1× B-27 and 1× Glutamax. After the cells had attached, the inserts were removed to initiate cell migration in all 4 quadrants of the dish. After 24 hours, cells were fixed and labeled with anti-β-Tubulin antibody (1:2000, Biolegend). Neuronal migration was assessed by measuring the distance between the final positions of cells from the border of the rectangular patch was outlined on the first day, using ImageJ software.
In one experiment, periventricular endothelial cells were isolated from E15 wildtype (CD1) forebrain and tested the effect of NAD^+ addition in vitro. Exogenous addition of 100 μM NAD^+ was able to initiate significant endothelial cell proliferation within 2 days of culture and a 35 mm culture dish was confluent within 4-6 days (FIGS. 2A-2D). […]

[3] = system: Gabrb3^ECKO endothelial cells; test: GABA secretion by ELISA after prenatal treatment; assay type: in vivo, mouse
Procedure: ELISA: Periventricular endothelial cells were prepared after the NAD^+ treatment paradigm, or after the treatment with purinergic receptor agonists/antagonists, and seeded in 12 well culture plates at 0.1×10^6 cells/well. Supernatants from endothelial cell cultures were collected after 96 hours and stored at −80° C. for ELISA. GABA concentrations were quantitatively determined by competitive ELISA according to the manufacturers' protocol (GABA Research ELISA kits, Labor Diagnostica Nord, Germany), and absorbance was measured using a multiplate microplate fluorescence reader (Molecular Devices, CA) at 450 nm.
Endothelial cell derived GABA plays dual roles in the embryonic forebrain. It not only activates a positive feedback cycle in endothelial cells that stimulates angiogenesis, but also is an essential chemo-attractive and guidance cue for promotion of long-distance migration of GABAergic interneurons. […] Since, Gad1 and Gad2 were rescued in Gabrb3^ECKO endothelial cells by the prenatal NAD^+ treatment (FIGS. 10H-10I), it was tested whether GABA expression was rescued in Gabrb3^ECKO endothelial cells (FIGS. 11A-11C). Control endothelial cells typically form tight networks or clusters under normal culture conditions. […] Next, we investigated the secretion of GABA by ELISA in the three groups. […]

Daxx = Daxx mRNA and protein levels in endothelial cells after prenatal treatment; assay type: in vivo, mouse
Procedure: Primary culture of endothelial cells and endothelial cell staining: Embryonic brains were dissected under a stereo-microscope, after the NAD^+ treatment paradigm and the telencephalon was removed. Pial membranes were peeled off. Telencephalon without pial membranes from the periventricular region was pooled. Purity of endothelial cell cultures was established with endothelial cell markers and determined to be one hundred percent. Isolation and culture of endothelial cells were performed according to published methodology. Periventricular endothelial cells were prepared from CD1 (wild type), saline-treated Gabrb3^fl/fl, saline-treated Gabrb3^ECKO, and NAD^+-treated Gabrb3^ECKO embryos. Endothelial cells were labeled with anti-biotinylated isolectinB4 (1:100, Sigma), anti-GABA (1:400, Sigma), anti-DAXX (1:100, Santa Cruz Biotechnology) and anti-P2X4 (1:100, Abclonal) followed by secondary detection with AlexaFluor conjugates (Invitrogen). DAPI (Invitrogen) was used to label nuclei. Images were taken on an FSX100 microscope (Olympus). 1 million cells were examined for each immunohistochemistry condition.
Quantitative real-time PCR: RT was performed by using iScript Reverse Transcription Supermix kit (Bio-Rad). […] The relative gene expression and subsequent fold changes among different samples were determined according to published methodology. […]

For NC(=O)c1ccc[n+]([C@@H]2O[C@H](COP(=O)([O-])OP(=O)(O)OC[C@H]3O[C@@H](n4cnc5c(N)ncnc54)[C@H](O)[C@@H]3O)[C@@H](O)[C@H]2O)c1 [NAD^+], the “long-distance migration of endothelial cells (cell number)” value [1] was “robust long-distance migration”, the neuronal cell proliferation ([2]; NAD^+ addition) was “an increase in cell proliferation” and the “long-distance migration of neuronal cells” value ([2]; NAD^+ addition, neurons alone) was “increased long-distance migration of neuronal cells”. For the same compound, the “long-distance migration of neuronal cells” value ([2]; neurons seeded on periventricular endothelial cells) was “more robust”, the “GABA secretion (ELISA)” value [3] was “rescued” and the “Daxx mRNA and DAXX protein levels” value (Daxx) was “normalize DAXX levels”.
